In patent publication US20030186943A1, “Substituted gamma-phenyl-delta-lactams and uses related thereto” (Inflazyme Pharmaceuticals Ltd., priority 1998, published 2003):
“And” between values parts separate entries of the source, which are not always exact repeats. Identical values can stand only once.

What was measured:
[1] = tested on: IL-2 production in concanavalin A stimulated primary human CD4+ T-cells; assay: IL-2 production (Th1 profile) in concanavalin A stimulated primary human CD4+ T-cells; format: cell-based
Excerpt: (§1) The assay on the primary human T-cells involves their activation by concanavalin A (conA); (Sigma, Catalogue No. C 5275), followed by ELISA detection for cytokines for either profile. In the case of Th1-profiles, IL-2 and INF-γ are used as benchmarks while IL-10 is the indicator for a Th2-profile. Biologically, these indicators are useful in that IL-2 is the major T-cell mitogen while IL-10 represents a powerful yet selective immunosuppressive agent.
(§2) Approximately 60 cc of whole human blood was collected into ACD anti-coagulant vacutainer tubes. 15 mL Ficoll Paque 1077 was aliquoted into 6 sterile 50 mL conical tubes. 10 mL of blood was slowly layered on top of the Ficoll Paque by holding the tube upright and resting the pipette tip at the inside edge of the tube and allowing the blood to slowly run down the side of the tube. Tubes were spun at 1700 rpm for 30 minutes at room temperature. The plasma layer above the leukocyte band was aspirated off and a pasteur pipette was used to lift off the leukocyte band and transfer it to a sterile 50 mL conical tube. Cells from each leukocyte gradiant tube were transferred to a separate 50 mL conical tube. Sterile PBS pH 7.4 was added to each 50 mL conical tube containing cells from leukocyte band to a volume of 50 mL. Tubes were spun at 1100 rpm for 10 minutes. Supernatant was aspirated off and the cells were resuspended in 50 mL PBS pH 7.4. Tubes were re-centrifuged at 1100 rpm for 10 minutes. Supernatant was aspirated off and the cells were resuspended in appropriate medium at a density of 5×10^7 cells/mL or 2×10^6 cells/mL.
(§3) CD 4+T-cell Preparation: Cells from Leukocyte preparation were resuspended in sterile PBS pH 7.4 supplemented with 2-6% Fetal Bovine Serum (FBS) at a density of 5×10^7 cells/mL. Cells were then ready for isolation.
(§4) 100 μL of antibody cocktail (Stem Cell Technologies, Catalogue No. 14062) was added for each mL of cells and mixed well. Cells+Ab cocktail was incubated on ice for 30 minutes. After 30 minute incubation, 60 μL of magnetic colloid was added for each mL of cells, and mixed well. Cells+Ab cocktail+magnetic colloid were incubated on ice for 30 minutes. After a final 30 minute incubation cells were ready for magnetic cell separation.
(§5) Sample was loaded into the top of a column. The stopcock was turned to allow the flow of media down through the column, and the media was collected into a collection tube. PBS supplemented with 2-6% FBS was added to the column until three column volumes had been collected (not including the volume of the start sample). Cells were washed, counted, and resuspended in RPMI 1640 with 10% FBS+2 mM L-glutamine at a density of 1×10^6 cells/mL.
(§6) CD4+ T-cells were isolated as described above. Cells were suspended in RPMI 1640 media (Stem Cell Technologies Inc.; Catalogue No. 36750) with 10% FBS+2 mM L-glutamine at a density of 1×10^6 cells/mL. Cells were maintained on ice as test compounds were prepared. Test compounds were prepared in a sterile 96-well assay plate at 50×the final desired test concentration, all wells contained an equal amount of dimethylsulfoxide vehicle. 500 μL of CD4^+ T-cells were added to each well of 24-well assay plate. 10 μL of each test compound working solution was added to the appropriate wells; two wells were left as stimulated and non-stimulated controls. 10 μL of concanavalin A (50×the final concentration) at 10 μg/mL was added to each well with the exception of the non-stimulated control wells. Cells were incubated at 37° C. for 48 hours. Conditioned media is then assessed by ELISA for the quantity of IL-2, […], TNFα and IL-10 present.
(§7) Tables 5A, 5B and 5C represent a synopsis of data across individuals with respects to the potency of compounds of the invention in their ability to inhibit cytokines that are likely to promote or depress a Th1 or Th2 response. […]

[2] = tested on: High Affinity Rolipram Binding Site of PDE4 in Mouse Brain; assay: Displacement of [3H]-rolipram from its high affinity binding site (HARBS); details: ratio of IC50 for PDE4 catalytic activity to concentration displacing 50% of rolipram from HARBS
[3] = tested on: CD8+ T-cells; assay: CD8+ T-cell proliferation (2C-TCR transgenic); format: cell-based, mouse; details: at 5 μM
Excerpt: 2C-TCR transgenic mice (Sha W. C. et al., Nature 335:271-274, 1988) were used to provide a source of naive antigen specific CD8+T cells. The 2C-T cell antigen receptor recognizes the 2C peptide derived from the mitochondrial alpha-ketoglutarate dehydrogenase enzyme in the context of the Db class I MHC molecule.
To test the efficacy of a test compound in naive CD8+ T cell activation and proliferation, single cell suspensions of 2C lymph node (LN) T cells were isolated from 2C-TCR transgenic mice. 2C-T cells were stimulated with irradiated TAP−/− H-2d splenocytes or L^d transfected TAP−/− T2 cell line in the presence of varying concentrations of 2C peptide (0-10 uM). Proliferation was assessed by ^3H thymidine incorporation. Cell surface activation phenotype of T cells was performed by flow cytometric analysis

[4] = tested on: Th1 cells; assay: Proliferation of differentiated Th1 CD4+ T cells; format: cell-based, mouse; details: CD4+ T cells already differentiated into Th1 phenotype
Procedure: The differentiation of naive CD4 T cells toward Th1 and Th2 lineages was performed as follows: 1×10^5 AND-lymph node T cells were cultured with […] B10.BR irradiated spleen cells in 2 ml of culture media with the following supplements: for Th1 cell differentiation, 100 U/mL IFNγ, 25U/mL IL2 and 10 ug/mL anti-IL4; for Th2 cell differentiation, 150 U/mL IL4, 25 U/mL IL2 and 10 ug/mL anti-IFNγ. After 3-4 days the wells were split 1:4 with the same additions. After 7 days the cells were harvested and washed 3 times to remove cytokines in the supernatents. 1×10^5 cultured cells were restimulated with 5×10^5 irradiated B10BR spleen cells +5 μM pcc peptide in 250 μl culture media without any added cytokines. The supernatents were harvested after 40 hrs and assessed for IL2, IL4 and IFNγ by ELISA. Test compounds were added throughout the differentiation of the culture.
Cultured Th1 and Th2 cells generated in the absence of test compounds were tested for proliferation and cytokine activity as described above during antigen stimulation in the presence of compound.

[5] = tested on: tail skin allograft rejection (C57BL/6 donor, BALB/c recipient mice); assay: Murine tail skin allograft transplantation model; format: in vivo, mouse; details: 10 mg/kg i.p. twice daily
Procedure: Tail skin from donor H-2 b C57BL/6 mice was transplanted onto recipient female H-2^d BALB/c mice (Lagodzinski, Z. et al., Immunology 71:148-150 (1990)). Five mice were included per group. […] Test compounds and CsA were administered twice daily intraperitoneally at a dose of 10 mg/kg beginning at one day prior to transplantation and for 15 days after transplantation, including the day of transplantation. Mice were monitored and scored daily over 15 days post transplantation for graft rejection.
Skin allograft rejection is primarily mediated by T lymphocytes with little evidence for a major role of antibodies under most circumstances. Skin allograft rejection requires the activation of helper and cytotoxic effector T cell populations. Graft rejection was assessed by monitoring allograft necrosis. Because tail skin is visibly distinct from the surrounding trunk skin of the mouse, the course of rejection can be easily monitored. Fully intact grafts were scored as 100%. Complete graft rejection was defined as >90% graft necrosis. Acute graft rejection generally proceeds via a series of visually obvious events beginning with swelling and erythema of the graft. These events are followed by graft desiccation and scab formation over most or all of the graft, signaling the loss of the viable graft tissue. Scab formation is subsequently followed by shrinkage and scar formation.

[6] = tested on: TNF-α production in concanavalin-A stimulated primary human CD4+ T-lymphocytes; assay: TNF-α production in Con-A stimulated human CD4+ T-cells (ELISA); format: cell-based; details: T-lymphocyte, X marks this range, read-out: TNF-alpha IC50 RANGE (μM) <2
Procedure: Activated T-lymphocytes are known to produce TNF-α and may constitute a significant source of this important inflammatory mediator in localized regions of inflammation such as the rheumatoid synovium or psoriatic lesions. Supernatants from cona-stimulated primary human CD4+ T-cells that had been incubated in the presence or absence of a test compound were analyzed for TNF-α using an ELISA system. (Pharingen; recommended anti-TNF antibody set 18631-D and 18642-D). Substantial quantities of TNF-α were induced in vehicle treated T-cells stimulated with conA. […] This may be due to the differing sensitivity of monocyte/macrophages versus T-lymphocytes to elevations in intracellular cAMP with respect to regulatory pathways impacting TNF-α production.
as §2, §3, §4, §5, §6

[7] = tested on: IFN-gamma production in concanavalin A stimulated primary human CD4+ T-cells; assay: IFN-gamma production (Th1 profile) in concanavalin A stimulated primary human CD4+ T-cells; format: cell-based; details: T-cell, 10 μg/mL Concanavalin A, 48 hours, X marks this range, read-out: INF-GAMMA IC50 RANGE (μM) 0.2-2.0
Excerpt: as §1, §2, §3, §4, §5, §6, §7

[8] = tested on: IL-10 production in concanavalin A stimulated primary human CD4+ T-cells; assay: IL-10 production (Th2 profile) in concanavalin A stimulated primary human CD4+ T-cells; format: cell-based; details: T-cell, 10 μg/mL Concanavalin A, 48 hours, X marks this range, read-out: IL-10 IC50 RANGE (μM) 0.02-0.2
Excerpt: as §1, §2, §3, §4, §5, §6, §7

[9] = tested on: K562 chronic myelogenous leukemia cells; assay: Anti-proliferative activity in K562 cells (3H-thymidine uptake); format: cell-based, human; details: Homo sapiens; K562, 48 hours, 3H-thymidine; X marks this range; read-out: IC50 range (μM) >50
Procedure: 90 μL K562 cells (human chronic myelogenous leukemia cells) were seeded into sterile 96-well assay plates at a density of 1×10^5 cells/mL in RPMI 1640 supplemented with 10% FBS/2 mM L-glutamine. Samples to be tested were prepared in a sterile 96-well assay plate at 10×the final concentration desired. All sample dilutions contained equal amounts of DMSO to compensate for the % DMSO in the highest sample concentration used. Nine concentrations of test compound were examined for effects on growth up to a maximal concentration of 100 μM. 10 μL of the samples and controls (DMSO/normal growth control) were added to the aliquoted cells. The cells were incubated at 37° C./5% CO2 for 48 hours. Following 48 hour incubation, 20 μL of 3H-thymidine was added to each well for a final concentration of 1 μCi/mL. The cells were then incubated at 37° C./5% CO2 for 4 to 6 hours. Following 4-6 hour thymidine pulse, plates were wrapped in plastic and frozen in a −20° C. frost-free freezer overnight. Cells were harvested and ^3H-thymidine counts determined. In order to distinguish between cytotoxicity and cytostatic activity, growth curves were prepared where the average CPM value of the seeding density of cells was plotted on the same curve as the average CPM value for the maximum proliferation attained after 48 hours (DMSO growth control cells). The cells were diluted 1:2 for a concentration range of 7.8×10^3 cells/mL to 2×10^6 cells/mL. 90 μL of each cell dilution was seeded in sterile 96-well assay plated and allowed to equilibrate for approximately 4 hours at 37° C./5% CO2 prior to ^3H-thymidine pulse. The data in Table 15 was obtained as described above, and more specifically, K562 cells were seeded into 96-well plates at 1×10^5 cells/mL in RPMI 1640 supplemented with 10% FBS/2 mM L-glutamine. Various concentrations of test compound or vehicle (DMSO) was added and the cells were incubated at 37° C./5 CO2 for 48 hours. The cells were then pulsed at 37° C./5% CO2 for 4 to 6 hours with 1 μCi/mL ^3H-thymidine. Radioactivity incorporated into DNA was determined after harvesting onto glass fiber filters and scintillation counting.

[10] = tested on: High Affinity Rolipram Binding Site of PDE4 in Mouse Brain; details: values reported for second-generation PDE4 inhibitors; cited from earlier work
[11] = tested on: TNBS-induced colitis in the rat; details: dose reduced to 50 mg/kg; cited from earlier work
[12] = tested on: TNBS-induced colitis in the rat; assay: TNBS-induced colitis model of inflammatory bowel disease in the rat;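 also: rat colitis induced by intracolonic TNBS in 50% ethanol, distal colon assessed at sacrifice on day 7, with saline-instilled vehicle-treated rats as controls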
Procedure: Colitis was induced by intracolonic instillation of the hapten TNBS (60 mg/mL) in 0.5 mL of 50% ethanol. […] An additional group of rats received saline intracolonically in place of TNBS/ethanol and was treated with vehicle at the same times as outlined above. Body weights were recorded at the beginning of the study and at days 2 and 7.
The rats were sacrificed on the 7th day after the induction of colitis and the extent of damage and inflammation was assessed. After the rats were sacrificed, the distal colon was removed and pinned out on a wax platform. The presence or absence of diarrhea was noted, as well as the presence and severity of adhesions between the colon and other organs, and the severity and extent of colonic damage. […] After scoring, a sample of colonic tissue was excised for measurement of myeloperoxidase activity as an index of granulocyte infiltration (see Wallace et al., Gastroenterology 117: in press, 1999; and Morris et al., Gastroenterology 96:795-803, 1989). This tissue sample was 1 cm long (along the axis of the colon) and 5 mm wide and was taken from a region of macroscopically visible damage (or the corresponding region in any rats in which there was no damage). The remainder of the tissue was fixed in neutral buffered formalin and processed by routine methods for subsequent evaluation by light microscopy. In a blinded manner, the sample of colonic tissue from each rat was examined for evidence of mucosal ulceration and inflammation. The percentage of the luminal surface of the section in which ulceration was present was calculated.

[13] = 100 mg/kg intracolonically at 12 h intervals for one week
[14] = 100 mg/kg intracolonically at 12 h intervals for one week, day 7

SMILES: COc1ccc([C@H]2COC(=O)C(Cc3ccc(OC4CCCC4)c(OC)c3)C2)cc1OC (some centres unmarked) [Compound 136]
- Th1 versus Th2 cytokine profile ([1]; conA stimulated CD4+ selected cells): selective inhibition of a Th1 profile
- PDE4:HARBS [2]: <1
- inhibition of CD8+ T-cell proliferation [3]: approx. 40%
- inhibition of Th1 cells [4]: approx. 30%
- Average graft survival ([5]; from one day prior to and for 15 days after transplantation): 15.4 days and 15.4 ± 1.3 days
- Allograft survival rate (% at 9 days post-transplant) ([5]; 9 days post-transplant): 100%
- # grafts surviving beyond 16 days p.t. ([5]; five mice per group): 3

SMILES: COc1cc(-c2ccc(=O)[nH]n2)ccc1OC(F)F [Zardaverine, reference compound]
- IC50 [6]: < 2 µM
- IC50 ([1]; Homo sapiens, T-cell, 10 μg/mL Concanavalin A, 48 hours, X marks this range, read-out: IL-2 IC50 RANGE (μM) 0.2-2.0): 0.2 to 2 µM
- IC50 [7]: 0.2 to 2 µM
- IC50 [8]: 0.02 to 0.2 µM
- IC50 [9]: > 50 µM

SMILES: COc1ccc(C(=O)Nc2c(Cl)cncc2Cl)cc1OC1CCCC1 [RP 73401]
- ratio of IC50's for PDE4catalytic to PDE4HARBS (reported) [10]: 3

SMILES: COc1ccc([C@]2(C#N)CC[C@@H](C(=O)O)CC2)cc1OC1CCCC1 [SB 207499]
- ratio of IC50's for PDE4catalytic to PDE4HARBS (reported) [10]: 1

SMILES: Nc1ccc(O)c(C(=O)OCCCCO[N+](=O)[O-])c1 [NCX-456]
- therapeutic effects in TNBS model at reduced dose [11]: lost
- Body Weight Change (%) [12, 13]: −5.7 ± 0.3%
- Mortality [12, 13]: 1/8
- Adhesion (Incidence) [12, 14]: (2/7)^ζ
- Adhesion Score [12, 14]: 0.4 ± 0.3
- Bowel Thickness (mm) [12, 14]: 2.02 ± 0.42 mm
- Damage Score [12, 14]: 3.7 ± 0.9
- Global Colitis Score [12, 14]: 6.60 ± 1.67
- reduction in the colonic damage score ([12]; 100 mg/kg, one week): 50%
- MPO Activity (U/mg) ([12]; colonic tissue, 100 mg/kg intracolonically at 12 h intervals for one week, day 7): 57.8 ± 11.6 U/mg
- Diarrhea ([12]; incidence, 100 mg/kg intracolonically at 12 h intervals for one week, day 7): 3/7
- Histology Score ([12]; percentage of luminal surface ulcerated, 100 mg/kg intracolonically for one week, day 7): 46.4 ± 4.1
